From patent publication US10323022B2, “Pyrrolidinyl urea, pyrrolidinyl thiourea and pyrrolidinyl guanidine compounds as TrkA kinase inhibitors” (Array BioPharma Inc., priority 2011, dated 2019) come the findings set out here.

The experiment addresses TrkA (Homo sapiens (Human), UniProt P04629). In words: TrkA Omnia Assay. The class given is biochemical. As to conditions: averaged IC50; 20 nM enzyme, 500 μM ATP, 10 μM peptide substrate. In a few lines:
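Recombinant TrkA (20 nM) preincubated 10 min at ambient temperature with compound, then Omnia Tyr Peptide #4 (10 μM) and ATP (500 μM) added in 25 mM MOPS pH 7.5, 5 mM MgCl2, 0.005% Triton X-100. Fluorescence (ex 360/em 485 nm) followed continuously for 70 min; IC50 from initial rates by 4- or 5-parameter logistic fit.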

Bounds are passed on as bounds.

What is called IC50 is the concentration at which inhibition is half-maximal. A high value points to weaker potency.

Chain of TrkA (P04629 33-796): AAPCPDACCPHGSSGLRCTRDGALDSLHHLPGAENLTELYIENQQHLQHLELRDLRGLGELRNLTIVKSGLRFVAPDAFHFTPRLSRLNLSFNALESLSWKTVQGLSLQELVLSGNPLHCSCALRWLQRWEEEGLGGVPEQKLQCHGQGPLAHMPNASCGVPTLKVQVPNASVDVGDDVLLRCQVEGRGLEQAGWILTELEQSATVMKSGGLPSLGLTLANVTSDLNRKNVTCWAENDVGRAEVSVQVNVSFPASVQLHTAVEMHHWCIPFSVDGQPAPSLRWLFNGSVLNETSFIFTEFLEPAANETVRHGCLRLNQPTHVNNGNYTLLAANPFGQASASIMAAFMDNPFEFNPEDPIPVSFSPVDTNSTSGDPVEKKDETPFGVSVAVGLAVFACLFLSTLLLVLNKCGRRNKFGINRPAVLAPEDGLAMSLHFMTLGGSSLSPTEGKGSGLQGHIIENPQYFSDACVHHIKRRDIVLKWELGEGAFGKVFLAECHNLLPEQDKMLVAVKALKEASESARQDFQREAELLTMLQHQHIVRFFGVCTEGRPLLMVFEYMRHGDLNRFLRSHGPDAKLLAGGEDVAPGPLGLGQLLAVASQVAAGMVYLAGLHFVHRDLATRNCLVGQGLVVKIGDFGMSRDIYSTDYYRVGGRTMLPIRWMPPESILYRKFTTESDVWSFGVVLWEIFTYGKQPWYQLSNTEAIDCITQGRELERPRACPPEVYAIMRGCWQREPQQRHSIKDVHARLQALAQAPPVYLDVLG

Consider `COCCN1C[C@@H](NC(=O)Nc2c(C)c(-c3cnn(C)c3)nn2-c2cccc(Cl)c2F)[C@H](c2ccc(F)cc2)C1` [Example 323], for which the IC50 is less than 100 nM.

`CCOc1nn(-c2ccccc2)c(NC(=O)N[C@H]2CN(c3ccnn3C)C[C@@H]2c2cc(F)cc(F)c2)c1C` [Example 231, 1-((3R,4S)-4-(3,5-difluorophenyl)-1-(1-methyl-1H-pyrazol-5-yl)pyrrolidin-3-yl)-3-(3-ethoxy-4-methyl-1-phenyl-1H-pyrazol-5-yl)urea] had an IC50 of less than 100 nM.

As for `COCCN1C[C@@H](NC(=O)Nc2c(C)c([C@H]3C[C@H](O)C3)nn2-c2ccccc2)[C@H](c2ccc(F)c(F)c2)C1` [Example 451, 1-((3S,4R)-4-(3,4-difluorophenyl)-1-(2-methoxyethyl)pyrrolidin-3-yl)-3-(3-(trans-3-hydroxycyclobutyl)-4-methyl-1-phenyl-1H-pyrazol-5-yl)urea], the IC50 was less than 100 nM.

For `COCCOc1nn(-c2ccccc2)c(NC(=O)N[C@@H]2CN(CCOC)C[C@H]2c2ccc(F)c(F)c2)c1C` [Example 137, 1-((3S,4R)-4-(3,4-difluorophenyl)-1-(2-methoxyethyl)pyrrolidin-3-yl)-3-(3-(2-methoxy-ethoxy)-4-methyl-1-phenyl-1H-pyrazol-5-yl)urea], the IC50 is less than 100 nM.

As for `COCCN1C[C@@H](NC(=O)Nc2c(C)c(-c3ccccc3)nn2-c2ccccc2)[C@H](c2cncc(F)c2)C1` (relative stereo) [Example 344, 1-(trans-4-(5-fluoropyridin-3-yl)-1-(2-methoxyethyl)pyrrolidin-3-yl)-3-(4-methyl-1,3-diphenyl-1H-pyrazol-5-yl)urea], the IC50 is less than 100 nM.

On to `COCCN1C[C@@H](NC(=O)Nc2c(-c3ccccc3)nn(C)c2C)[C@H](c2ccc(F)c(F)c2)C1` [Example 639, 1-((3S,4R)-4-(3,4-difluorophenyl)-1-(2-methoxyethyl)pyrrolidin-3-yl)-3-(1,5-dimethyl-3-phenyl-1H-pyrazol-4-yl)urea], for which the IC50 was less than 100 nM.

`COCCN1C[C@@H](NC(=O)Nc2c(C)c(OC)nn2-c2ccccc2)[C@H](c2ccc(F)cc2)C1` [Example 143, 1-((3S,4R)-4-(4-fluorophenyl)-1-(2-methoxyethyl)pyrrolidin-3-yl)-3-(3-methoxy-4-methyl-1-phenyl-1H-pyrazol-5-yl)urea] had a 50% inhibitory concentration (IC50) of less than 100 nM.

In the case of `COCCN1C[C@@H](NC(=O)Nc2c(Br)c(C3CCN(C(=O)OC(C)(C)C)CC3)nn2-c2ccccc2)[C@H](c2ccc(F)c(F)c2)C1` [Example 575, Tert-butyl 4-(4-bromo-5-(3-((3S,4R)-4-(3,4-difluorophenyl)-1-(2-methoxyethyl)pyrrolidin-3-yl)ureido)-1-phenyl-1H-pyrazol-3-yl)piperidine-1-carboxylate], the IC50 is less than 100 nM.

As to `COCCN1C[C@@H](NC(=O)Nc2c(Br)c(COC)nn2-c2ccccc2)[C@H](c2ccc(F)cc2)C1` [Example 408, 1-(4-bromo-3-(methoxymethyl)-1-phenyl-1H-pyrazol-5-yl)-3-((3S,4R)-4-(4-fluorophenyl)-1-(2-methoxyethyl)pyrrolidin-3-yl)urea], the IC50 was less than 100 nM.

As for `COCCN1C[C@@H](NC(=O)Nc2c(C)c(OCC(CO)CO)nn2-c2ccccc2)[C@H](c2ccc(F)c(F)c2)C1` [Example 474, 1-((3S,4R)-4-(3,4-difluorophenyl)-1-(2-methoxyethyl)pyrrolidin-3-yl)-3-(3-(3-hydroxy-2-(hydroxymethyl)propoxy)-4-methyl-1-phenyl-1H-pyrazol-5-yl)urea], the IC50 was less than 100 nM.

For the compound `COCCN1C[C@@H](NC(=O)Nc2c(C)c(OC[C@H](O)COC)nn2-c2ccccc2)[C@H](c2ccc(F)c(F)c2)C1` [Example 563, 1-((3S,4R)-4-(3,4-difluorophenyl)-1-(2-methoxyethyl)pyrrolidin-3-yl)-3-(3-((R)-2-hydroxy-3-methoxypropoxy)-4-methyl-1-phenyl-1H-pyrazol-5-yl)urea], the half-inhibitory concentration (IC50) is less than 100 nM.

Take `CC[C@H](O)COc1nn(-c2ccccc2)c(NC(=O)N[C@@H]2CN(CCOC)C[C@H]2c2ccc(F)c(F)c2)c1C` [Example 360, 1-((3S,4R)-4-(3,4-difluorophenyl)-1-(2-methoxyethyl)pyrrolidin-3-yl)-3-(3-((S)-2-hydroxybutoxy)-4-methyl-1-phenyl-1H-pyrazol-5-yl)urea]: the IC50 was less than 100 nM.

`O=C(Nc1c2c(nn1-c1ccccc1)CCC2)N[C@@H]1CN(CC(F)(F)F)C[C@H]1c1cccc(F)c1` [Example 200, 1-((3S,4R)-4-(3-fluorophenyl)-1-(2,2,2-trifluoroethyl)pyrrolidin-3-yl)-3-(2-phenyl-2,4,5,6-tetrahydrocyclopenta[c]pyrazol-3-yl)urea]: the 50% inhibitory concentration (IC50) was 100 to 1000 nM.

In turn, `COCCN1C[C@@H](NC(=O)Nc2c3c(nn2-c2cccnc2)CCC3)[C@H](c2ccccc2)C1` (relative stereo) [Example 19, 1-(trans-1-(2-methoxyethyl)-4-phenylpyrrolidin-3-yl)-3-(2-(pyridin-3-yl)-2,4,5,6-tetrahydrocyclopenta[c]pyrazol-3-yl)urea] came in with an IC50 of 100 to 1000 nM.

Regarding `COCCN1C[C@@H](NC(=O)Nc2c3c(nn2-c2ccccc2)CCC3)[C@H](c2ccno2)C1` (relative stereo) [Example 47, 1-(trans-4-(isoxazol-5-yl)-1-(2-methoxyethyl)pyrrolidin-3-yl)-3-(2-phenyl-2,4,5,6-tetrahydrocyclopenta[c]pyrazol-3-yl)urea], the IC50 was in the range of 100 to 1000 nM.

For the compound `COCCN1C[C@@H](NC(=O)Nc2c(Br)c(OC[C@@H](C)O)nn2-c2ccccc2)[C@H](c2ccc(F)c(F)c2)C1` [Example 375, 1-(4-bromo-3-((R)-2-hydroxypropoxy)-1-phenyl-1H-pyrazol-5-yl)-3-((3S,4R)-4-(3,4-difluorophenyl)-1-(2-methoxyethyl)pyrrolidin-3-yl)urea], the IC50 is less than 100 nM.

The compound `COCCN1C[C@@H](NC(=O)Nc2c(C)c(-c3cnc(C)nc3)nn2-c2ccccc2)[C@H](c2ccc(F)c(F)c2)C1` [Example 511, 1-((3S,4R)-4-(3,4-difluorophenyl)-1-(2-methoxyethyl)pyrrolidin-3-yl)-3-(4-methyl-3-(2-methylpyrimidin-5-yl)-1-phenyl-1H-pyrazol-5-yl)urea] showed an IC50 of less than 100 nM.

In turn, `COCCOc1nn(-c2ccccc2)c(NC(=O)N[C@@H]2CN(CC(F)(F)F)C[C@H]2c2cccc(F)c2)c1C` [Example 202, 1-((3S,4R)-4-(3-fluorophenyl)-1-(2,2,2-trifluoroethyl)pyrrolidin-3-yl)-3-(3-(2-methoxyethoxy)-4-methyl-1-phenyl-1H-pyrazol-5-yl)urea] showed an IC50 of less than 100 nM.

Compound `COCCN1C[C@@H](NC(=O)Nc2c(Cl)c(COC)nn2-c2ccccc2)[C@H](c2cc(F)cc(F)c2)C1` [Example 405, 1-(4-chloro-3-(methoxymethyl)-1-phenyl-1H-pyrazol-5-yl)-3-((3S,4R)-4-(3,5-difluorophenyl)-1-(2-methoxyethyl)pyrrolidin-3-yl)urea] had an IC50 of less than 100 nM.

`COCCN1C[C@@H](NC(=O)Nc2c(C)c(-c3ccc(=O)n(C)c3)nn2-c2ccccc2)[C@H](c2ccc(F)c(F)c2)C1` [Example 506, 1-((3S,4R)-4-(3,4-difluorophenyl)-1-(2-methoxyethyl)pyrrolidin-3-yl)-3-(4-methyl-3-(1-methyl-6-oxo-1,6-dihydropyridin-3-yl)-1-phenyl-1H-pyrazol-5-yl)urea] displayed an IC50 of less than 100 nM.
